Experimental data taken from patent publication US10144715B2, “Piperazine derivatives as liver X receptor modulators” (priority 2014, dated 2018).
Where two headings read alike, the source gives them in different places.

Assays:
LXR α LBD protein = LXR α LBD protein (Homo sapiens (Human), UniProt Q13133); assay: LXR α radioligand binding assay (SPA, competition with [3H]TO901317); settings: read-out: LXRα Binding Ki
LXR β LBD protein = LXR β LBD protein (Homo sapiens (Human), UniProt P55055); assay: biochemical; format: binding
Sequence of LXR β LBD protein (P55055 222-460 limits assumed): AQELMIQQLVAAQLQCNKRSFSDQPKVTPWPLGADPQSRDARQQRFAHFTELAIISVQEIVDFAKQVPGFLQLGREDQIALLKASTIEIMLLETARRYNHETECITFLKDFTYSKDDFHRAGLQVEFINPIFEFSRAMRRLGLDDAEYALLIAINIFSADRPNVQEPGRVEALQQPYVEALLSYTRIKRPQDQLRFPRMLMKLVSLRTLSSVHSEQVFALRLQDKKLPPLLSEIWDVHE

[1] = molecular target: Gal4 DNA binding domain fused to the LBD of LXRα in HEK293 cells (Homo sapiens (Human), UniProt Q13133); assay: LXR luciferase transcriptional reporter gene assay, agonist mode, LXRα; format: cell-based; settings: for EC50: read-out: Cell LXRα EC50
Sequence of Gal4 DNA binding domain fused to the LBD of LXRα in HEK293 cells (Q13133 209-447): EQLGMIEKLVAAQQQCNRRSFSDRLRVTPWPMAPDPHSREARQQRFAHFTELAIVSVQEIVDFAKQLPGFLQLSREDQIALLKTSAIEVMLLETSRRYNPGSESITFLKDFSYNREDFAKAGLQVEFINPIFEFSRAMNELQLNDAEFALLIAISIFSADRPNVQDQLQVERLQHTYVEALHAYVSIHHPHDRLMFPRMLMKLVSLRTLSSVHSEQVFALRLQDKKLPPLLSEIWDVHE

[2] = molecular target: Gal4 DNA binding domain fused to the LBD of LXRβ in HEK293 cells (Homo sapiens (Human), UniProt P55055); assay: cell-based
Sequence of Gal4 DNA binding domain fused to the LBD of LXRβ in HEK293 cells (P55055 222-460 limits assumed): as the sequence (P55055 222-460 limits assumed) above

[3] = Biological Test Example 1, read-out: LXRβ Binding Ki
[4] = Biological Test Example 2, agonist mode
[5] = Biological Test Example 2, agonist mode, read-out: Cell LXRβ EC50
[6] = agonist mode, read-out: Cell LXRβ EC50

Sequence of LXR α LBD protein (Q13133 209-447): as the sequence (Q13133 209-447) above

| Compound | Ki (LXR α LBD protein) [nM] | Ki (LXR β LBD protein; [3]) [nM] | EC50 [1, 4] [nM] | EC50 [2] [nM] | Ki (LXR β LBD protein; read-out: LXRβ Binding Ki) [nM] | Cell LXRα efficacy [1] | EC50 [1] [nM] | Cell LXRβ efficacy [2] | Cell LXRβ efficacy [2, 4] | EC50 [2, 5] [nM] | Ki (LXR β LBD protein) [nM] | EC50 [2, 6] [nM] | Cell LXRβ efficacy ([2]; agonist mode) | EC50 ([1]; agonist mode) [nM] |
| --- | --- | --- | --- | --- | --- | --- | --- | --- | --- | --- | --- | --- | --- | --- |
| CS(=O)(=O)c1cccc(N2CCN(CC3(F)CCN(CC(F)(F)F)CC3)[C@H](c3ccccc3)C2)c1 (single isomer, unassigned) [48-54] | > 3330 | 2390 | > 20000 | > 20000 |  |  |  |  |  |  |  |  |  |  |
| CS(=O)(=O)c1cccc(N2CCN(CC3CCN(CC(F)(F)F)CC3)[C@@H](c3ccccc3Cl)C2)c1 (single isomer, unassigned) [48-55] | 277 |  |  | 547 | 67 | 2129 (42) % | 2130 | 547 (19) % |  |  |  |  |  |  |
| CC(C)[C@H]1CC[C@H](CN2CCN(c3ccc(CO)c(S(C)(=O)=O)c3)C[C@@H]2c2ccccc2)CC1 (single isomer, unassigned) [48-77] | 131 | 23 |  |  |  | 789 (53) % | 789 |  | 23% | 360 |  |  |  |  |
| CC(C)[C@H]1CC[C@H](CN2CCN(c3ccc(CO)c(S(C)(=O)=O)c3)C[C@H]2c2ccccc2)CC1 (single isomer, unassigned) [48-78] | 30700 | 2460 |  |  |  | 10997 (14) % | 11000 |  | 10% | 8340 |  |  |  |  |
| NS(=O)(=O)c1cccc(N2CCN(CC3CCN(CC(F)(F)F)CC3)[C@@H](c3ccccc3)C2)c1 (single isomer, unassigned) [48-81] | 2300 | 479 | 1960 | 822 |  | 1964 (37) % |  |  | 822 (9) % |  |  |  |  |  |
| NS(=O)(=O)c1cccc(N2CCN(CC3CCN(CC(F)(F)F)CC3)[C@H](c3ccccc3)C2)c1 (single isomer, unassigned) [48-82] | 7400 | 2490 | > 20000 | > 20000 |  |  |  |  |  |  |  |  |  |  |
| CS(=O)(=O)c1cccc(N2CCN(C[C@H]3CC[C@@H](C(F)(F)F)OC3)[C@@H](c3ccc(F)cc3)C2)c1 (single isomer, unassigned) [49-9] | 1210 |  |  | 575 |  | 1643 (32) % | 1640 |  | 575 (23) % |  | 150 |  |  |  |
| CS(=O)(=O)c1cccc(N2CCN(C[C@H]3CCC(C(F)(F)F)OC3)[C@@H](c3ccc(F)cc3)C2)c1 (single isomer, unassigned) [49-10] | 438 |  |  | 376 |  | 1575 (67) % | 1570 |  | 376 (37) % |  | 53 |  |  |  |
| CS(=O)(=O)c1cccc(N2CCN(C[C@@H]3CCC(C(F)(F)F)OC3)[C@@H](c3ccc(F)cc3)C2)c1 (single isomer, unassigned) [49-12] | 1770 |  |  | 522 |  | 2637 (51) % | 2640 |  | 522 (25) % |  | 184 |  |  |  |
| CS(=O)(=O)c1cc(N2CCN(C[C@H]3CC[C@@H](C(F)(F)F)CC3)[C@H](c3ccccc3)C2)ccc1C#N (single isomer, unassigned) [50-5] | 6550 | 688 |  |  |  | 10000 (7) % | 10000 |  | 11% | 997 |  |  |  |  |
| CS(=O)(=O)c1cc(N2CCN(C[C@H]3CC[C@@H](C(F)(F)F)CC3)[C@@H](c3ccccc3)C2)ccc1C#N (single isomer, unassigned) [50-6] | 241 | 58 |  |  |  | 429 (81) % | 429 |  | 53% | 226 |  |  |  |  |
| CO[C@H]1CC[C@H](CN2CCN(c3ccc(CO)c(S(C)(=O)=O)c3)C[C@@H]2C(C)C)CC1 (single isomer, unassigned) [51-6] | 2800 | 543 |  |  |  | 1772 (45) % | 1770 |  | 45% | 400 |  |  |  |  |
| CS(=O)(=O)c1cc(N2CCN(C[C@H]3CC[C@@H](C(F)(F)F)CC3)[C@@H](c3ccccc3Cl)C2)ccc1C(N)=O (single isomer, unassigned) [Cpd No 4-8] | 443 |  |  | 545 | 80 | 782 (91) % | 782 | 545 (59) % |  |  |  |  |  |  |
| CS(=O)(=O)c1cc(N2CCN(C[C@H]3CC[C@@H](C(F)(F)F)CC3)[C@H](c3ccccc3Cl)C2)ccc1C(N)=O (single isomer, unassigned) [Cpd No 4-9] | 3650 |  |  | 5050 | 926 | 15695 (21) % | 15700 | 5047 (31) % |  |  |  |  |  |  |
| CS(=O)(=O)c1cccc(N2CCN(C[C@H]3CC[C@](C)(O)CC3)[C@@H](c3ccccc3)C2)c1 (single isomer, unassigned) [Cpd No 48-7] | 4530 |  |  |  | 465 | 4661 (6) % | 4660 |  |  |  |  | > 20000 |  |  |
| CS(=O)(=O)c1cccc(N2CCN(C[C@H]3CC[C@](C)(O)CC3)[C@H](c3ccccc3)C2)c1 (single isomer, unassigned) [Cpd No 48-8] | > 3330 |  |  |  | > 2500 |  | > 20000 |  |  |  |  | > 20000 |  |  |
| CO[C@]1(C(F)(F)F)CC[C@@H](CN2CCN(c3ccc(CO)c(S(C)(=O)=O)c3)C[C@@H]2C(C)C)CC1 (single isomer, unassigned) [Cpd No 48-79] | 5 | 2 | 6 | 1 |  | 6 (58) % |  |  | 1 (115) % |  |  |  |  |  |
| CO[C@]1(C(F)(F)F)CC[C@H](CN2CCN(c3ccc(CO)c(S(C)(=O)=O)c3)C[C@@H]2C(C)C)CC1 (single isomer, unassigned) [Cpd No 48-80] | 30 | 3 | 27 | 18 |  | 27 (73) % |  |  | 18 (99) % |  |  |  |  |  |
| CC(C)[C@H]1CN(c2ccc(CO)c(S(C)(=O)=O)c2)CCN1C[C@H]1CC[C@H](C(F)(F)F)OC1 (single isomer, unassigned) [Cpd No 49-2] | 194 |  |  | 78 | 23 | 122 (63) % | 122 | 78 (83) % |  |  |  |  |  |  |
| CC(C)[C@H]1CN(c2cccc(S(C)(=O)=O)c2)CCN1C[C@H]1CC[C@@H](C(F)(F)F)OC1 (single isomer, unassigned) [Cpd No 49-5] | 421 |  |  | 266 |  | 578 (64) % | 578 | 266 (77) % |  |  | 70 |  |  |  |
| CC(C)[C@H]1CN(c2cccc(S(C)(=O)=O)c2)CCN1C[C@H]1CC[C@H](C(F)(F)F)OC1 (single isomer, unassigned) [Cpd No 49-6] | 216 |  |  | 114 | 46 | 442 (56) % | 442 | 114 (67) % |  |  |  |  |  |  |
| CC(C)[C@H]1CN(c2cccc(S(C)(=O)=O)c2)CCN1C[C@@H]1CC[C@@H](C(F)(F)F)OC1 (single isomer, unassigned) [Cpd No 49-7] | 333 |  |  | 132 | 45 | 523 (82) % | 523 | 132 (76) % |  |  |  |  |  |  |
| CC(C)[C@H]1CN(c2cccc(S(C)(=O)=O)c2)CCN1C[C@@H]1CC[C@H](C(F)(F)F)OC1 (single isomer, unassigned) [Cpd No 49-8] | 84 |  |  | 36 | 11 | 103 (79) % | 103 | 36 (93) % |  |  |  |  |  |  |
| CO[C@H]1CC[C@@H](CN2CCN(c3ccc(CO)c(S(C)(=O)=O)c3)C[C@@H]2C(C)C)CC1 (single isomer, unassigned) [Cpd No 51-7] | 303 |  |  | 42 | 51 | 154 (80) % | 154 |  | 42 (84) % |  |  |  |  |  |
| CC(C)[C@@H]1CN(c2ccc(C(N)=O)c(S(C)(=O)=O)c2Cl)CCN1c1nccc(C(F)(F)F)n1 [4-3, (R)-3-chloro-4-(3-isopropyl-4-(4-(trifluoromethyl)pyrimidin-2-yl)piperazin-1-yl)-2-(methylsulfonyl)benzamide] | > 3330 |  |  | 1680 | > 2500 |  | > 20000 |  |  |  |  |  | 1679 (12) % |  |
| CC(C)[C@@H]1CN(c2cc(S(C)(=O)=O)c(C(N)=O)cc2Cl)CCN1c1nccc(C(F)(F)F)n1 [4-4, (R)-5-chloro-4-(3-isopropyl-4-(4-(trifluoromethyl)pyrimidin-2-yl)piperazin-1-yl)-2-(methylsulfonyl)benzamide] | > 3330 |  |  | 1350 | 1630 | 2852 (7) % |  |  |  |  |  |  |  | 2850 |
| CC(C)[C@@H]1CN(c2ccc(F)c(S(C)(=O)=O)c2)CCN1c1nccc(C(N)=O)n1 [4-5, (R)-2-(4-(4-fluoro-3-(methylsulfonyl)phenyl)-2-isopropylpiperazin-1-yl)pyrimidine-4-carboxamide] | 3250 |  |  | 1720 | 495 | 15117 (37) % | 15100 | 1723 (24) % |  |  |  |  |  |  |
| CC(C)[C@@H]1CN(c2ccc(F)c(S(C)(=O)=O)c2)CCN1c1ncc(C(F)(F)F)c(C(N)=O)n1 [4-7, (R)-2-(4-(4-fluoro-3-(methylsulfonyl)phenyl)-2-isopropylpiperazin-1-yl)-5-(trifluoromethyl)pyrimidine-4-carboxamide] | 1680 |  |  | 477 | 173 | 2952 (73) % | 2950 |  |  |  |  |  | 477 (61) % |  |
